Reference: patent US10815219B2, “2,4-diaminoquinazoline derivatives for inhibiting endoplasmic reticulum (ER) stress” (The Board of Regents of the University of Oklahoma, priority 2017, dated 2020)
Where two headings read alike, the source gives them in different places.

Tested on: INS-1 cells
Test: INS-1 cell survival after Tm treatment (CellTiter-Glo, intracellular ATP)
Assay type: cell-based, rat
Details: for Maximum activity: % rescue from Tm (0.1 μg/mL)-induced reduction of cell viability, Tm alone 0%, DMSO 100%
Protocol: A structure-activity-relationship (SAR) study was thus conducted to improve the weak potency of lead compound 5a. Newly synthesized or commercially available compounds were tested for their β-cell-protective activity against ER stress in rat INS-1 β-cells. […] Maximum activity value in the tables is reported as % rescue from Tm (0.1 μg/mL)-induced reduction of cell viability. The values for Tm treatment alone and control (DMSO, without Tm) treatment are designated as 0% and 100%, respectively in all tables. EC50 values (the concentrations that reach half-maximal activity) for INS-1 cell viability were calculated with GraphPad Prism from the data of ten 2-fold serial titration points in all tables. All experiments were performed in triplicate in all tables.
INS-1 cells or βTC6 cells were seeded at 3×10^3 cells/well in a 384-well plate and treated with compounds at the indicated concentrations. After 3 d treatment, the medium was aspirated and 20 μL/well of CellTiter-Glo reagent (Promega, WI, USA) was added for the detection of intracellular ATP levels. Cell viability was measured with an EnVision multilabel plate reader (PerkinElmer, MA, USA).

[1] = INS-1 cell viability, Tm 0.1 μg/mL, 72 h, ten 2-fold serial titration points, Table 2, read-out: EC50
[2] = INS-1 cell viability in presence of Tm, read-out: EC50
[3] = INS-1 cell viability, Tm 0.1 μg/mL, 72 h, ten 2-fold serial titration points, Table 1, read-out: EC50
[4] = INS-1 cell viability, Tm 0.1 μg/mL, 72 h, ten 2-fold serial titration points, Table 3, read-out: EC50

SMILES: OCC1CCCCN1c1nc(NCCc2ccccc2Cl)c2ccccc2n1 (racemic) [Compound 6l]
- Maximum activity (72 h, Table 2): 51.4%
- EC50 [1]: 0.47 ± 0.45 µM

SMILES: OCC1CCCN1c1nc(NCCc2ccccc2)c2ccccc2n1 (stereo not drawn) [Compound 5a, (1-(4-(phenethylamino)quinazolin-2-yl)pyrrolidin-2-yl)methanol]
- Maximum activity (72 h, Table 1): 54.4%
- EC50 [2]: ~0.5 µM
- EC50 (Rattus norvegicus, INS1, 72 h, INS-1 cell viability, Tm 0.1 μg/mL, 72 h, ten 2-fold serial titration points, Table 1, read-out: EC50): 0.48 ± 0.19 µM
- EC50 (Rattus norvegicus, INS1, running text, INS-1 cell viability in presence of Tm, read-out: EC50): 0.48 ± 0.19 µM

SMILES: OCC1CCCN1c1nc(NCCc2ccc(F)cc2)c2ccccc2n1 (stereo not drawn) [Compound 5b]
- Maximum activity (72 h, Table 1): 56.2%
- EC50 [3]: 2.13 ± 0.41 µM

SMILES: OCC1CCCN1c1nc(NCCc2ccc(Cl)cc2)c2ccccc2n1 (stereo not drawn) [Compound 5c]
- Maximum activity (72 h, Table 1): 57.3%
- EC50 [2]: ~0.5 µM
- EC50 [3]: 0.51 ± 0.09 µM

SMILES: OCC1CCCN1c1nc(NCCc2ccc(Br)cc2)c2ccccc2n1 (stereo not drawn) [Compound 5d]
- Maximum activity (72 h, Table 1): 44.1%
- EC50 [2]: ~0.5 µM
- EC50 [3]: 0.65 ± 0.16 µM

SMILES: Cc1ccc(CCNc2nc(N3CCCC3CO)nc3ccccc23)cc1 (stereo not drawn) [Compound 5e]
- Maximum activity (72 h, Table 1): 34.2%
- EC50 [2]: ~0.5 µM
- EC50 [3]: 0.66 ± 0.21 µM

SMILES: OCC1CCCN1c1nc(NCCc2cccc(F)c2)c2ccccc2n1 (stereo not drawn) [Compound 5f]
- Maximum activity (72 h, Table 1): 51.3%
- EC50 [3]: 1.15 ± 0.19 µM

SMILES: OCC1CCCN1c1nc(NCCc2cccc(Cl)c2)c2ccccc2n1 (stereo not drawn) [Compound 5g]
- Maximum activity (72 h, Table 1): 51.5%
- EC50 [3]: 1.05 ± 0.18 µM

SMILES: OCC1CCCN1c1nc(NCCc2cccc(Br)c2)c2ccccc2n1 (stereo not drawn) [Compound 5h]
- Maximum activity (72 h, Table 1): 53.2%
- EC50 [3]: 0.78 ± 0.24 µM

SMILES: COc1cccc(CCNc2nc(N3CCCC3CO)nc3ccccc23)c1 (stereo not drawn) [Compound 5i]
- Maximum activity (72 h, Table 1): 54.9%
- EC50 [3]: 1.51 ± 0.13 µM

SMILES: OCC1CCCN1c1nc(NCCc2ccccc2F)c2ccccc2n1 (stereo not drawn) [Compound 5j]
- Maximum activity (72 h, Table 1): 52.5%
- EC50 [3]: 1.7 ± 0.23 µM

SMILES: OCC1CCCN1c1nc(NCCc2ccccc2Cl)c2ccccc2n1 (stereo not drawn) [Compound 5k]
- Maximum activity (72 h, Table 1): 50.6%
- EC50 [3]: 1.44 ± 0.27 µM

SMILES: OC[C@@H]1CCCN1c1nc(NCCc2ccccc2Br)c2ccccc2n1 [Compound 5l]
- Maximum activity (72 h, Table 1): 39.0%
- EC50 [3]: 1.88 ± 0.32 µM

SMILES: COc1ccccc1CCNc1nc(N2CCCC2CO)nc2ccccc12 (stereo not drawn) [Compound 5m]
- Maximum activity (72 h, Table 1): 56.6%
- EC50 [3]: 3.56 ± 0.15 µM

SMILES: OCC1CCCCN1c1nc(NCCc2ccccc2)c2ccccc2n1 (stereo not drawn) [Compound 6a]
- Maximum activity (72 h, Table 2): 55.7%
- EC50 [1]: 0.36 ± 0.21 µM

SMILES: OCC1CCCCN1c1nc(NCCc2ccc(F)cc2)c2ccccc2n1 (stereo not drawn) [Compound 6b]
- EC50 improvement over 2-(hydroxymethyl)pyrrolidin-1-yl counterpart (6-series versus 5-series counterpart): ~7 fold
- Maximum activity (72 h, Table 2): 47.5%
- EC50 [1]: 0.31 ± 0.26 µM

SMILES: OCC1CCCCN1c1nc(NCCc2ccc(Cl)cc2)c2ccccc2n1 (stereo not drawn) [Compound 6c]
- Maximum activity (72 h, Table 2): 57.6%
- EC50 [1]: 0.17 ± 0.05 µM

SMILES: OCC1CCCCN1c1nc(NCCc2ccc(Br)cc2)c2ccccc2n1 (stereo not drawn) [Compound 6d]
- Maximum activity (72 h, Table 2): 52.8%
- EC50 [1]: 0.34 ± 0.09 µM

SMILES: Cc1ccc(CCNc2nc(N3CCCCC3CO)nc3ccccc23)cc1 (stereo not drawn) [Compound 6e]
- Maximum activity (72 h, Table 2): 33.6%
- EC50 [1]: 0.14 ± 0.04 µM

SMILES: COc1ccc(CCNc2nc(N3CCCCC3CO)nc3ccccc23)cc1 (stereo not drawn) [Compound 6f]
- Maximum activity (72 h, Table 2): 58.6%
- EC50 [1]: 0.31 ± 0.12 µM

SMILES: OCC1CCCCN1c1nc(NCCc2cccc(F)c2)c2ccccc2n1 (stereo not drawn) [Compound 6g]
- Maximum activity (72 h, Table 2): 57.3%
- EC50 [1]: 1.88 ± 0.18 µM

SMILES: OCC1CCCCN1c1nc(NCCc2cccc(Cl)c2)c2ccccc2n1 (stereo not drawn) [Compound 6h]
- Maximum activity (72 h, Table 2): 46.2%
- EC50 [1]: 0.79 ± 0.3 µM

SMILES: OCC1CCCCN1c1nc(NCCc2cccc(Br)c2)c2ccccc2n1 (stereo not drawn) [Compound 6i]
- Maximum activity (72 h, Table 2): 51.7%
- EC50 [1]: 0.77 ± 0.4 µM

SMILES: COc1cccc(CCNc2nc(N3CCCCC3CO)nc3ccccc23)c1 (stereo not drawn) [Compound 6j]
- Maximum activity (72 h, Table 2): 69.2%
- EC50 (INS-1 cell viability in presence of Tm): increased
- EC50 [1]: 2.59 ± 0.31 µM

SMILES: OCC1CCCCN1c1nc(NCCc2ccccc2F)c2ccccc2n1 (stereo not drawn) [Compound 6k]
- Maximum activity (72 h, Table 2): 60.3%
- EC50 [1]: 1.46 ± 0.46 µM

SMILES: OCC1CCCCN1c1nc(NCCc2ccccc2Br)c2ccccc2n1 (stereo not drawn) [Compound 6m]
- Maximum activity (72 h, Table 2): 44.2%
- EC50 [1]: 1.41 ± 0.31 µM

SMILES: COc1ccccc1CCNc1nc(N2CCCCC2CO)nc2ccccc12 (stereo not drawn) [Compound 6n]
- Maximum activity (72 h, Table 2): 46.9%
- EC50 [1]: 1.6 ± 0.15 µM

SMILES: COc1ccc(CNc2nc(N3CCCC3CO)nc3ccccc23)cc1 (stereo not drawn) [Compound 8c]
- Maximum activity (72 h, Table 3): 57.2%
- EC50 [4]: 4.05 ± 0.13 µM

SMILES: COc1ccc(CNc2nc(N3CCCC3CO)nc3ccccc23)cc1OC (stereo not drawn) [Compound 8d]
- Maximum activity (72 h, Table 3): 44.9%
- EC50 [4]: 1.85 ± 0.39 µM

SMILES: OCC1CCCCN1c1nc(NCc2ccccc2)c2ccccc2n1 (stereo not drawn) [Compound 9a]
- Maximum activity (72 h, Table 3): 56.4%
- EC50 [4]: 0.23 ± 0.07 µM

SMILES: OCC1CCCCN1c1nc(NCc2ccc(Cl)cc2)c2ccccc2n1 (stereo not drawn) [Compound 9b]
- Maximum activity (72 h, Table 3): 54.7%
- EC50 [4]: 0.21 ± 0.08 µM

SMILES: COc1ccc(CNc2nc(N3CCCCC3CO)nc3ccccc23)cc1OC (stereo not drawn) [Compound 9d]
- Maximum activity (72 h, Table 3): 69.4%
- EC50 [4]: 3.64 ± 0.38 µM

SMILES: Nc1nc(Sc2cc(-n3cccc3)c(Cl)cc2[N+](=O)[O-])n[nH]1 [RH01687, reference compound]
- concentration exhibiting the maximum protective activity (INS-1 cells, Tm 0.1 μg/mL, 72 h, based on dose-dependent curves): 30 µM
